Measured values reported in ChEMBL document CHEMBL3112474, “Discovery of substituted lactams as novel dual orexin receptor antagonists. Synthesis, preliminary structure-activity relationship studies and efforts towards improved metabolic stability and pharmacokinetic properties. Part 1” (Bioorg Med Chem Lett, 2014).

system: not listed separately; experiment: Half life in human liver microsomes; format: ADME; settings: not given

Structure (SMILES) | half-life
COc1cccc(OC)c1C1CCCC(=O)N1Cc1ccc2ccccc2c1 (racemic) | < 1 min

system: MDR1; experiment: Apparent passive permeability across apical to basolateral side in MDCK cells expressing human MDR1; format: ADME, cell-based, Canis lupus familiaris; settings: dog

Structure (SMILES) | Papp A→B
COc1cccc(OC)c1C1CCCC(=O)N1Cc1ccc2ccccc2n1 (single isomer, unassigned) | 24.2 ×10⁻⁶ cm/s

system: Cerebrospinal fluid; experiment: Drug level in Wistar rat cerebrospinal fluid at 100 mg/kg, po; format: ADME, organism-based; set-up: dose 100 mg/kg, route oral; settings: in vivo

Structure (SMILES) | Drug uptake
COc1cccc(OC)c1C1CCCC(=O)N1Cc1ccc2ccccc2n1 (single isomer, unassigned) | 23 ng/mL

molecular target: Cytochrome P450 2D6 (Homo sapiens, UniProt P10635); experiment: Inhibition of CYP2D6 (unknown origin); format: ADME; settings: not given
Sequence (P10635 whole entry): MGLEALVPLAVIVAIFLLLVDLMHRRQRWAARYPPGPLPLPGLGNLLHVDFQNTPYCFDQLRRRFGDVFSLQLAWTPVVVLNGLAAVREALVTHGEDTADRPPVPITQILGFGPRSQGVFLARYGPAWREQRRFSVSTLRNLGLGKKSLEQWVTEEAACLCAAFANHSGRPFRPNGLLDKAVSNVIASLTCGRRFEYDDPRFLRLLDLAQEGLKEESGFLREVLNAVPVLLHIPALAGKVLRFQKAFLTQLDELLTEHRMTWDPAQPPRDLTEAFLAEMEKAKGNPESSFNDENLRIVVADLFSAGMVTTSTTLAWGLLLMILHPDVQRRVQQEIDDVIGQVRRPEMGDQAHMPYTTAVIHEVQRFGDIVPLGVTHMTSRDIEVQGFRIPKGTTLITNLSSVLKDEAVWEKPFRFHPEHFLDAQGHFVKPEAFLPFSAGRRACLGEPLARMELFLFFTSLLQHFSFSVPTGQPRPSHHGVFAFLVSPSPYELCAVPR

Structure (SMILES) | IC50
COc1cccc(OC)c1C1CCCC(=O)N1Cc1ccc2ccccc2n1 (single isomer, unassigned) | > 30000 nM

system: not listed separately; experiment: Intrinsic clearance in rat liver microsomes at 1 uM; format: ADME; settings: read-out: CLH

Structure (SMILES) | microsomal CLint at 1 µM
COc1cccc(OC)c1C1CCCC(=O)N1Cc1ccc2ccccc2n1 (single isomer, unassigned) | > 1250 µL/min/mg

system: not listed separately; experiment: Plasma concentration in Wistar rat at 100 mg/kg, po after 3 hrs; format: ADME, organism-based; set-up: dose 100 mg/kg, route oral; settings: not given

Structure (SMILES) | concentration at 3 h
COc1cccc(OC)c1C1CCCC(=O)N1Cc1ccc(OC(F)(F)F)cc1 (racemic) | 94 ng/mL
COc1cccc(OC)c1C1CCCC(=O)N1Cc1ccc2ccccc2n1 (single isomer, unassigned) | 140 ng/mL

system: MDR1; experiment: Apparent passive permeability across basolateral to apical side in MDCK cells expressing human MDR1; format: ADME, cell-based, Canis lupus familiaris; settings: dog

Structure (SMILES) | Papp B→A
COc1cccc(OC)c1C1CCCC(=O)N1Cc1ccc2ccccc2n1 (single isomer, unassigned) | 63.2 ×10⁻⁶ cm/s

molecular target: Cytochrome P450 3A4 (Homo sapiens, UniProt P08684); experiment: Inhibition of CYP3A4 (unknown origin); format: ADME; settings: not given
Sequence (P08684 whole entry): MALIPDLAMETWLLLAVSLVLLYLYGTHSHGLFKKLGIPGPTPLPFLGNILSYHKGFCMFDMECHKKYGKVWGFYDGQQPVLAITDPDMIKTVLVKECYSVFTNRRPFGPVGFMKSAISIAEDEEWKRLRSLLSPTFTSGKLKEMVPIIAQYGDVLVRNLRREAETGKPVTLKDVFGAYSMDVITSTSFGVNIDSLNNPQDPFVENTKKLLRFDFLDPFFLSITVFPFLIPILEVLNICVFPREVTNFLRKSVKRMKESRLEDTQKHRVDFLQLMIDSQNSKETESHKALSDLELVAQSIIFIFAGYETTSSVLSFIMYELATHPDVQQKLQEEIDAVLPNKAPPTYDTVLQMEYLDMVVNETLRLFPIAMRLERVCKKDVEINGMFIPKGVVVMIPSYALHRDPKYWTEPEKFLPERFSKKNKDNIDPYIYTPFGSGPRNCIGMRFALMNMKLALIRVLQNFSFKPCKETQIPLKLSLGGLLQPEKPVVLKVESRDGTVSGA

Structure (SMILES) | IC50
COc1cccc(OC)c1C1CCCC(=O)N1Cc1ccc2ccccc2n1 (single isomer, unassigned) | > 30000 nM

system: not listed separately; experiment: Intrinsic clearance in human liver microsomes at 1 uM; format: ADME; settings: read-out: CLH

microsomal CLint at 1 µM | Structure (SMILES)
> 1250 µL/min/mg | COc1cccc(OC)c1C1CCCC(=O)N1Cc1cccc(-c2ncccn2)c1 (configuration not stated)
649 µL/min/mg | COc1cccc(OC)c1C1CCC(C)C(=O)N1Cc1ccc(OC(F)(F)F)cc1 (mixture of isomers)
645 µL/min/mg | COc1cccc(OC)c1C1CC(C)CC(=O)N1Cc1ccc(OC(F)(F)F)cc1 (mixture of isomers)
88 µL/min/mg | COc1cccc(OC)c1C1CC(C)C(=O)N1Cc1ccc2sc(C)nc2c1 (mixture of isomers)
> 1250 µL/min/mg | COc1cccc(OC)c1C1CCCC(=O)N1Cc1ccc2ccccc2c1 (racemic)
1200 µL/min/mg | COc1cccc(OC)c1C1CCCC(=O)N1Cc1ccc2oc3ccccc3c2c1 (racemic)
> 1250 µL/min/mg | COc1cccc(OC)c1C1CCCC(=O)N1Cc1cccc(-c2ccccc2)n1 (racemic)
> 1250 µL/min/mg | COc1cccc(OC)c1C1CCCC(=O)N1Cc1ccnc(-c2ccccc2)c1 (racemic)
> 1250 µL/min/mg | COc1cccc(OC)c1C1CCCC(=O)N1Cc1cccc(-c2ccccn2)c1 (racemic)
> 1250 µL/min/mg | COc1cccc(OC)c1C1CCCC(=O)N1Cc1cccc(-c2csc(C)n2)c1 (racemic)
> 1250 µL/min/mg | COc1cccc(OC)c1C1CCCC(=O)N1Cc1cccc(-n2nccn2)c1 (racemic)
> 1250 µL/min/mg | COc1cccc(OC)c1C1CCCC(=O)N1Cc1ccnc(-c2nccs2)c1 (racemic)
> 1250 µL/min/mg | COc1cccc(OC)c1C1CCCC(=O)N1Cc1ccnc(-n2cccn2)c1 (racemic)
1130 µL/min/mg | COc1ccnc(OC)c1C1CCCC(=O)N1Cc1ccc2oc3ccccc3c2c1 (racemic)
912 µL/min/mg | COc1ccnc(OC)c1C1CCCC(=O)N1Cc1csc(-c2ccccc2)n1 (racemic)
670 µL/min/mg | COc1cccc(OC)c1C1CCC(=O)N1Cc1ccc(OC(F)(F)F)cc1 (racemic)

The next lines start with the molecule.

Structure (SMILES) | microsomal CLint at 1 µM
COc1cccc(OC)c1C1CCCC(=O)N1C(C)c1ccc(OC(F)(F)F)cc1 (mixture of isomers) | > 1250 µL/min/mg
COc1cccc(OC)c1C1CC(C)C(=O)N1Cc1ccc2oc3ccccc3c2c1 (mixture of isomers) | 260 µL/min/mg
COc1cccc(OC)c1C1CCCC(=O)N1Cc1cccc(-c2ccccc2)c1 (racemic) | > 1250 µL/min/mg
COc1cccc(OC)c1C1CCCC(=O)N1Cc1ccc2sc(C)nc2c1 (racemic) | 860 µL/min/mg
COc1cccc(OC)c1C1CCCC(=O)N1Cc1csc(-c2ccccc2)n1 (racemic) | > 1250 µL/min/mg
COc1ccc2nc(C)oc2c1C1CCCC(=O)N1Cc1cccc(-c2ccccc2)c1 (racemic) | > 1250 µL/min/mg
COc1ccc2nc(C)oc2c1C1CCCC(=O)N1Cc1cccc(-c2csc(C)n2)c1 (racemic) | > 1250 µL/min/mg
COc1cccc(OC)c1C1COCC(=O)N1Cc1ccc(OC(F)(F)F)cc1 (racemic) | > 1250 µL/min/mg
COc1cccc(OC)c1[C@H]1C[C@H](C)C(=O)N1Cc1ccc(OC(F)(F)F)cc1 (racemic) | 257 µL/min/mg
COc1cccc(OC)c1C1CCCC(=O)N1Cc1ccc(OC(F)(F)F)cc1 (racemic) | > 1250 µL/min/mg
COc1cccc(OC)c1C1CCCCC(=O)N1Cc1ccc(OC(F)(F)F)cc1 (racemic) | > 1250 µL/min/mg
COc1cccc(OC)c1C1CCCC(=O)N1Cc1ccc2ccccc2n1 (single isomer, unassigned) | > 1250 µL/min/mg

molecular target: Cytochrome P450 2C9 (Homo sapiens, UniProt P11712); experiment: Inhibition of CYP2C9 (unknown origin); format: ADME; settings: not given
Sequence (P11712 whole entry): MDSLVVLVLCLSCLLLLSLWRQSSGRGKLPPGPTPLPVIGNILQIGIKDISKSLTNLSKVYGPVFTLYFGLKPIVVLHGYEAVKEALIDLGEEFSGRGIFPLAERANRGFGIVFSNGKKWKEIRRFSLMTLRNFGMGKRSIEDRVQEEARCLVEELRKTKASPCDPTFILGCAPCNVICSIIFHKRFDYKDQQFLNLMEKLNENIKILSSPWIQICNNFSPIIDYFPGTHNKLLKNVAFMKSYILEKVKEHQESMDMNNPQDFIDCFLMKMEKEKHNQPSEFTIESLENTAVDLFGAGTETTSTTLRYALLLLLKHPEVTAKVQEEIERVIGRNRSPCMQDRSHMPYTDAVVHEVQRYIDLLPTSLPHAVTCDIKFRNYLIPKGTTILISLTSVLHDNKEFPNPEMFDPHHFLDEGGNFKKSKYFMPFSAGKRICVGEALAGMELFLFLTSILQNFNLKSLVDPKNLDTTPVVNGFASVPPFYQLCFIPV

Structure (SMILES) | IC50
COc1cccc(OC)c1C1CCCC(=O)N1Cc1ccc2ccccc2n1 (single isomer, unassigned) | > 30000 nM

molecular target: T1, Orexin/Hypocretin receptor type 1 (Homo sapiens, UniProt O43613); experiment: Antagonist activity at human orexin 1 receptor expressed in CHO cells assessed as inhibition of orexin-A-induced calcium mobilization by FLIPR assay; format: functional, cell-based; settings: not given
T1 sequence (O43613 whole entry): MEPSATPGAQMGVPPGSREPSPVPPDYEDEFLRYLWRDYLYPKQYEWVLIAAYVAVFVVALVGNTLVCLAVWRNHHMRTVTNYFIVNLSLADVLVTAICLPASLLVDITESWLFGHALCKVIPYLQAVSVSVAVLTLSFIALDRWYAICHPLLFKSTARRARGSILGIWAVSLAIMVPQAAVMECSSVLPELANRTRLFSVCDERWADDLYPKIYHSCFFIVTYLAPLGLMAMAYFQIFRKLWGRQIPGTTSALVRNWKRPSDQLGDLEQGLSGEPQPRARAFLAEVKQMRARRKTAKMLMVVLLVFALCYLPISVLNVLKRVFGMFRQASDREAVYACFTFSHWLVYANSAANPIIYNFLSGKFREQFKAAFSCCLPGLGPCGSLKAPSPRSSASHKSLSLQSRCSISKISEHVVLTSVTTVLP

Structure (SMILES) | IC50
COc1cccc(OC)c1C1CCCC(=O)N1C(C)c1ccc(OC(F)(F)F)cc1 (mixture of isomers) | 142 nM
COc1cccc(OC)c1C1C2CC2C(=O)N1Cc1ccc(OC(F)(F)F)cc1 (mixture of isomers) | 1150 nM
COc1cccc(OC)c1C1CC(C)C(=O)N1Cc1ccc2oc3ccccc3c2c1 (mixture of isomers) | 4 nM
COc1cc(OC)c(C2CCCCN2Cc2ccc(OC(F)(F)F)cc2)c(OC)c1 (racemic) | 1590 nM
COc1cccc(OC)c1C1CCCC(=O)N1Cc1ccc2ccccc2n1 (racemic) | 49 nM
COc1cccc(OC)c1C1CCCC(=O)N1Cc1ccccc1 (racemic) | 2420 nM
COc1cccc(OC)c1C1CCCC(=O)N1c1ccccc1 (racemic) | > 10000 nM
COc1cccc(OC)c1C1CCCC(=O)N1CCc1ccccc1 (racemic) | 9700 nM
COc1cccc(OC)c1C1CCCC(=O)N1Cc1ccc(Oc2ccccc2)cc1 (racemic) | 531 nM
COc1cccc(OC)c1C1CCCC(=O)N1Cc1cccc(-c2ccccc2)c1 (racemic) | 65 nM
COc1cccc(OC)c1C1CCCC(=O)N1Cc1cnc2ccccc2c1 (racemic) | 675 nM
COc1cccc(OC)c1C1CCCC(=O)N1Cc1ccc2sc(C)nc2c1 (racemic) | 32 nM
COc1cccc(OC)c1C1CCCC(=O)N1Cc1csc(-c2ccccc2)n1 (racemic) | 45 nM
COc1ccc2nc(C)oc2c1C1CCCC(=O)N1Cc1cccc(-c2ccccc2)c1 (racemic) | 54 nM
COc1ccc2nc(C)oc2c1C1CCCC(=O)N1Cc1cccc(-c2csc(C)n2)c1 (racemic) | 17 nM
COc1cccc(OC)c1C1COC(=O)N1Cc1ccc(OC(F)(F)F)cc1 (racemic) | 2650 nM
COc1cccc(OC)c1C1c2ccccc2C(=O)N1Cc1ccc(OC(F)(F)F)cc1 (racemic) | > 10000 nM
COc1cccc(OC)c1C1SCC(=O)N1Cc1ccc(OC(F)(F)F)cc1 (racemic) | 155 nM
COc1cccc(OC)c1C1CCCC(=O)N1Cc1ccc(OC(F)(F)F)cc1 (racemic) | 284 nM
COc1cccc(OC)c1C1CCCCC(=O)N1Cc1ccc(OC(F)(F)F)cc1 (racemic) | 264 nM

system: not listed separately; experiment: Drug level in Wistar rat brain at 100 mg/kg, po after 3 hrs; format: ADME, organism-based; set-up: dose 100 mg/kg, route oral; settings: read-out: Drug uptake

Structure (SMILES) | concentration at 3 h
COc1cccc(OC)c1C1CCCC(=O)N1Cc1ccc(OC(F)(F)F)cc1 (racemic) | 153 ng/g
COc1cccc(OC)c1C1CCCC(=O)N1Cc1ccc2ccccc2n1 (single isomer, unassigned) | 108 ng/g

system: not listed separately; experiment: Ratio of drug level in brain to plasma in Wistar rat at 100 mg/kg, po after 3 hrs; format: ADME, organism-based; set-up: dose 100 mg/kg, route oral; settings: read-out: BPR

Structure (SMILES) | Kp at 3 h
COc1cccc(OC)c1C1CCCC(=O)N1Cc1ccc(OC(F)(F)F)cc1 (racemic) | 1.6
COc1cccc(OC)c1C1CCCC(=O)N1Cc1ccc2ccccc2n1 (single isomer, unassigned) | 0.8

molecular target: T2, Orexin receptor type 2 (Homo sapiens, UniProt O43614); experiment: Antagonist activity at human orexin 2 receptor expressed in CHO cells assessed as inhibition of orexin-A-induced calcium mobilization by FLIPR assay; format: functional, cell-based; settings: not given
T2 sequence (O43614 whole entry): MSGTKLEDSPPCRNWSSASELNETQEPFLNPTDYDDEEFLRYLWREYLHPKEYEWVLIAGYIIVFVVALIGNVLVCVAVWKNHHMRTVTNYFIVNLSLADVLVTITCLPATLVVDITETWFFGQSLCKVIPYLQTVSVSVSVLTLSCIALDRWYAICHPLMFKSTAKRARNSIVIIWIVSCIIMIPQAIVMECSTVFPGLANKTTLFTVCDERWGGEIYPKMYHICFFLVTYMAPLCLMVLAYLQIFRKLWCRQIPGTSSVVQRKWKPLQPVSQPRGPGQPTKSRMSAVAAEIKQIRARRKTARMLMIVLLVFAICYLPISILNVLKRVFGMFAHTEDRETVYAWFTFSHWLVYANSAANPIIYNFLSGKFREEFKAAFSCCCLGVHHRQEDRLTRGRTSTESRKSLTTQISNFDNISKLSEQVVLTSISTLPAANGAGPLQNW

Structure (SMILES) | IC50
COc1cccc(OC)c1C1CCCC(=O)N1C(C)c1ccc(OC(F)(F)F)cc1 (mixture of isomers) | 21 nM
COc1cccc(OC)c1C1C2CC2C(=O)N1Cc1ccc(OC(F)(F)F)cc1 (mixture of isomers) | 1070 nM
COc1cccc(OC)c1C1CC(C)C(=O)N1Cc1ccc2oc3ccccc3c2c1 (mixture of isomers) | 9 nM
COc1cc(OC)c(C2CCCCN2Cc2ccc(OC(F)(F)F)cc2)c(OC)c1 (racemic) | > 10000 nM
COc1cccc(F)c1C1CCCC(=O)N1Cc1ccc(OC(F)(F)F)cc1 (racemic) | 161 nM
COc1cccc(OC)c1C1CCCC(=O)N1Cc1ccccc1 (racemic) | 416 nM
COc1cccc(OC)c1C1CCCC(=O)N1c1ccccc1 (racemic) | > 10000 nM
COc1cccc(OC)c1C1CCCC(=O)N1CCc1ccccc1 (racemic) | 1330 nM
COc1cccc(OC)c1C1CCCC(=O)N1Cc1ccc(Oc2ccccc2)cc1 (racemic) | 29 nM
COc1cccc(OC)c1C1CCCC(=O)N1Cc1cccc(-c2ccccc2)c1 (racemic) | 28 nM
COc1cccc(OC)c1C1CCCC(=O)N1Cc1cnc2ccccc2c1 (racemic) | 217 nM
COc1cccc(OC)c1C1CCCC(=O)N1Cc1ccc2sc(C)nc2c1 (racemic) | 12 nM
COc1cccc(OC)c1C1CCCC(=O)N1Cc1csc(-c2ccccc2)n1 (racemic) | 6 nM
COc1ccc2nc(C)oc2c1C1CCCC(=O)N1Cc1cccc(-c2ccccc2)c1 (racemic) | 93 nM
COc1ccc2nc(C)oc2c1C1CCCC(=O)N1Cc1cccc(-c2csc(C)n2)c1 (racemic) | 65 nM
COc1cccc(OC)c1C1COC(=O)N1Cc1ccc(OC(F)(F)F)cc1 (racemic) | 771 nM
COc1cccc(OC)c1C1c2ccccc2C(=O)N1Cc1ccc(OC(F)(F)F)cc1 (racemic) | > 10000 nM
COc1cccc(OC)c1C1SCC(=O)N1Cc1ccc(OC(F)(F)F)cc1 (racemic) | 16 nM
COc1cccc(OC)c1C1CCCC(=O)N1Cc1ccc(OC(F)(F)F)cc1 (racemic) | 25 nM
COc1cccc(OC)c1C1CCCCC(=O)N1Cc1ccc(OC(F)(F)F)cc1 (racemic) | 74 nM
